Measurements published in patent publication US9523100B2, “Pesticidal compositions and related methods” (DOW AGROSCIENCES LLC, priority 2013, dated 2016).
Read-outs that look alike come from different tables or passages of the source.

Key:
[1] = tested on: Green Peach Aphid (GPA) (Myzus persicae) (MYZUPE); assay: Bioassay for Green Peach Aphid (GPA), foliar spray on cabbage seedlings; type: in vivo; settings: 72 h, read-out: GPA 200 ppm, % Control (or Mortality) rating
Source text: Bioassay for Green Peach Aphid (GPA) (Myzus persicae) (MYZUPE)
The green peach aphid (Myzus persicae) is the most significant aphid pest of peach trees, causing decreased growth, shriveling of the leaves, and the death of various tissues. It is also hazardous because it acts as a vector for the transport of plant viruses, such as potato virus Y and potato leafroll virus to members of the nightshade/potato family Solanaceae, and various mosaic viruses to many other food crops. GPA attacks such plants as broccoli, burdock, cabbage, carrot, cauliflower, daikon, eggplant, green beans, lettuce, macadamia, papaya, peppers, sweet potatoes, tomatoes, watercress, and zucchini, among other plants GPA also attacks many ornamental crops such as carnation, chrysanthemum, flowering white cabbage, poinsettia, and roses. GPA has developed resistance to many pesticides.
Cabbage seedlings grown in 3-inch pots, with 2-3 small (3-5 cm) true leaves, were used as test substrate. The seedlings were infested with 20-50 GPA (wingless adult and nymph stages) one day prior to chemical application. Four pots with individual seedlings were used for each treatment. Test compounds (2 mg) were dissolved in 2 mL of acetone/methanol (1:1) solvent, forming stock solutions of 1000 ppm test compound. The stock solutions were diluted 5× with 0.025% Tween 20 in water to obtain the solution at 200 ppm test compound. A hand-held aspirator-type sprayer was used for spraying a solution to both sides of […] leaves until runoff. Reference plants (solvent check) were sprayed with the diluent only containing 20% by volume of acetone/methanol (1:1) solvent. Treated plants were held in a holding room for three days at approximately 25° C. and ambient relative humidity (RH) prior to grading. Evaluation was conducted by counting the number of live aphids per plant under a microscope. Percent control was measured by using Abbott's correction formula (W. S. Abbott, “A Method of Computing the Effectiveness of an Insecticide” J. Econ. Entomol. 18 (1925), pp. 265-267) as follows. Corrected % Control=100*(X−Y)/X
X=No. of live aphids on solvent check plants and
Y=No. of live aphids on treated plants
Biological Data for Green Peach Aphid (GPA) (MYZUPE) and Sweetpotato Whitefly-Crawler (WF) (BEMITA)” (see table section).
(§1) The mortality efficiency of the pesticidal compounds against GPA and WF insects was determined after treatment.

[2] = tested on: Sweetpotato Whitefly-Crawler (WF) (Bemisia tabaci) (BEMITA); assay: Insecticidal test for Sweetpotato Whitefly-Crawler (WF) in foliar spray assay on cotton plants; type: in vivo; settings: 216 h, read-out: WF 200 ppm, % Control (or Mortality) rating
Source text: Insecticidal Test for Sweetpotato Whitefly-Crawler (WF) (Bemisia tabaci) (BEMITA) in Foliar Spray Assay
The sweetpotato whitefly (Bemisia tabaci) has been reported as a serious pest of cultivated crops world-wide. It has an extremely wide host range attacking more than 500 species of plants from 63 plant families. Weeds often serve as alternate hosts of crop pests. Direct feeding damage is caused by the piercing and sucking sap from the foliage of plants. This feeding causes weakening and early wilting of the plant and reduces the plant growth rate and yield Indirect damage results by the accumulation of honeydew produced by the whiteflies. Honeydew serves as a substrate for the growth of black sooty mold on leaves and fruit reducing photosynthesis and lessens the market value of the plant or yield. […] The sweetpotato whitefly is considered the most common and important whitefly vector of plant viruses worldwide.
Cotton plants (Gossypium hirsutum) grown in 3-inch pots, with 1 small (4-5 cm) true leaves, were used as test substrate. The plants were infested with 200-400 whitefly eggs 4-5 days prior to chemical application. Four pots with individual plants were used for each treatment. Test compounds (2 mg) were dissolved in 1 mL of acetone solvent, forming stock solutions of 2000 ppm test compound. The stock solutions were diluted 10× with 0.025% Tween 20 in water (diluents) to obtain the solution at 200 ppm test compound. A hand-held aspirator-type sprayer was used for spraying a solution to both sides of cotton leaves until runoff. Reference plants (solvent check) were sprayed with the diluent only containing 10% by volume of acetone solvent. Treated plants were held in a holding room for 9 days at approximately 25° C. and ambient relative humidity (RH) prior to grading. Evaluation was conducted by counting the number of live 3-4 nymph stage per plant under a microscope. Percent control was measured by using Abbott's correction formula (W. S. Abbott, “A Method of Computing the Effectiveness of an Insecticide” J. Econ. Entomol. 18 (1925), pp. 265-267) as follows.
Biological Data for Green Peach Aphid (GPA) (MYZUPE) and Sweetpotato Whitefly-Crawler (WF) (BEMITA)” (see table section). Corrected % Control=100*(X−Y)/X
X=No. of live nymphs on solvent check plants and
Y=No. of live nymphs on treated plants
as §1

[3] = 200 ppm foliar spray on cabbage seedlings, graded after three days, Abbott corrected % control
[4] = 200 ppm foliar spray on cotton plants, graded after 9 days, Abbott corrected % control

Compound `CN(C(=O)Cn1ccccc1=O)c1cn(-c2cccnc2)nc1Cl` [Compound F3, N-(3-Chloro-1-(pyridin-3-yl)-1H-pyrazol-4-yl)-N-methyl-2-(2-oxopyridin-1(2H)-yl)acetamide] has a mortality at 200 ppm [1, 3] of 80 to 100% and a mortality at 200 ppm [2, 4] of 80 to 100%.

`CCN(C(=O)CN(C)C(=O)OC(C)(C)C)c1cn(-c2cccnc2)nc1Cl` [Compound F4, tert-Butyl (2-((3-chloro-1-(pyridin-3-yl)-1H-pyrazol-4-yl)(ethyl)amino)-2-oxoethyl)(methyl)carbamate] gave a mortality at 200 ppm ([1]; foliar) of 80 to 100% and a mortality at 200 ppm ([2]; foliar) of 80 to 100%.

With `CCN(C(=O)CN(C)C(=O)CCC(F)(F)F)c1cn(-c2cccnc2)nc1Cl` [Compound F5, N-(2-((3-Chloro-1-(pyridin-3-yl)-1H-pyrazol-4-yl)(ethyl)amino)-2-oxoethyl)-4,4,4-trifluoro-N-methylbutanamide] the mortality at 200 ppm [1, 3] was 80 to 100% and the mortality at 200 ppm [2, 4] was 80 to 100%.

`CN(C(=O)CN1CCCC1=O)c1cn(-c2cccnc2)nc1Cl` [Compound F6, N-(3-Chloro-1-(pyridin-3-yl)-1H-pyrazol-4-yl)-N-methyl-2-(2-oxopyrrolidin-1-yl)acetamide] was tested, and the mortality at 200 ppm [1, 3] was 80 to 100% and the mortality at 200 ppm [2, 4] was 80 to 100%.

In the case of `CN(C(=O)CN1CCSC1=O)c1cn(-c2cccnc2)nc1Cl` [Compound F7, N-(3-Chloro-1-(pyridin-3-yl)-1H-pyrazol-4-yl)-N-methyl-2-(2-oxothiazolidin-3-yl)acetamide], the mortality at 200 ppm [1, 3] is reported as 0 to 80% and the mortality at 200 ppm [2, 4] is reported as 80 to 100%.

`CCN(C(=O)CCN1CCCCC1=O)c1cn(-c2cccnc2)nc1Cl` [Compound F8, N-(3-Chloro-1-(pyridin-3-yl)-1H-pyrazol-4-yl)-N-ethyl-3-(2-oxopiperidin-1-yl)propanamide] showed a mortality at 200 ppm [1, 3] of 80 to 100% and a mortality at 200 ppm [2, 4] of 80 to 100%.

With `CCN(C(=O)CCN(C(C)=O)C1CC1)c1cn(-c2cccnc2)nc1Cl` [Compound F9, N-(3-Chloro-1-(pyridin-3-yl)-1H-pyrazol-4-yl)-3-(N-cyclopropylacetamido)-N-ethylpropanamide] the mortality at 200 ppm [1, 3] was 80 to 100% and the mortality at 200 ppm [2, 4] was 0 to 80%.

`CCN(C(=O)CN1CCSC1=O)c1cn(-c2cccnc2)nc1Cl` [Compound F10, N-(3-Chloro-1-(pyridin-3-yl)-1H-pyrazol-4-yl)-N-ethyl-2-(2-oxothiazolidin-3-yl)acetamide] gave a mortality at 200 ppm [1, 3] of 0 to 80% and a mortality at 200 ppm [2, 4] of 80 to 100%.

`CCN(C(=O)C1CCN(C(=O)OC(C)(C)C)C1)c1cn(-c2cccnc2)nc1Cl` (stereo not shown) [Compound F11] was tested, and the mortality at 200 ppm [1, 3] was 0 to 80% and the mortality at 200 ppm [2, 4] was 80 to 100%.

For `CCN(C(=O)CCNC(=O)CCC(F)(F)F)c1cn(-c2cccnc2)nc1Cl` [Compound F12, N-(3-((3-Chloro-1-(pyridin-3-yl)-1H-pyrazol-4-yl)(ethyl)amino)-3-oxopropyl)-4,4,4-trifluorobutanamide], the mortality at 200 ppm [1, 3] was 80 to 100% and the mortality at 200 ppm [2, 4] was 80 to 100%.

With `CCN(C(=O)CCC(=O)NCc1ccc(C)o1)c1cn(-c2cccnc2)nc1Cl` [Compound F13, N1-(3-Chloro-1-(pyridin-3-yl)-1H-pyrazol-4-yl)-N1-ethyl-N4-((5-methylfuran-2-yl)methyl)succinamide] the mortality at 200 ppm [1, 3] was 0 to 80% and the mortality at 200 ppm [2, 4] was 80 to 100%.

In the case of `CCN(C(=O)CC1CN(Cc2ccc(C(F)(F)F)cc2)C1=O)c1cn(-c2cccnc2)nc1Cl` (stereo not shown) [Compound F14], the mortality at 200 ppm [1, 3] is reported as 0 to 80% and the mortality at 200 ppm [2, 4] is reported as 80 to 100%.

`CCN(C(=O)CCC(=O)NCC1CCCCC1)c1cn(-c2cccnc2)nc1Cl` [Compound F15, N1-(3-Chloro-1-(pyridin-3-yl)-1H-pyrazol-4-yl)-N4-(cyclohexylmethyl)-N1-ethylsuccinamide] gave a mortality at 200 ppm [1, 3] of 0 to 80% and a mortality at 200 ppm [2, 4] of 80 to 100%.

`CCN(C(=O)C(C)OC(=O)N(C)OC)c1cn(-c2cccnc2)nc1Cl` (stereo not shown) [Compound F16, 1-((3-Chloro-1-(pyridin-3-yl)-1H-pyrazol-4-yl)(ethyl)amino)-1-oxopropan-2-yl methoxy(methyl) carbamate] showed a mortality at 200 ppm [1, 3] of 80 to 100% and a mortality at 200 ppm [2, 4] of 80 to 100%.
